From article PMC2990605 (British Journal of Cancer, 2010)

Assay: Adverse events (CTCAEv3.0), worst grade per patient regardless of relation, and laboratory parameters
Format: in vivo
Conditions: human, in vivo, 21 days
Procedure: Toxicity was evaluated according to common toxicity criteria for adverse events (CTCAEv3.0). The MTD was defined as the dose level(s) at which at least two out of six patients developed DLT.
Toxicity assessment, haematology and clinical biochemistry were performed at baseline and weekly during the study. Physical and ECOG performance status were recorded at baseline and before the next cycle.

CC(C)C[C@@H](C(=O)N[C@H](C(=O)OC1CCCC1)c1ccccc1)[C@H](O)C(=O)NO [tosedostat]
1: Fatigue, CTCAE grade 3, patients | Gastric dilatation, CTCAE grade 3, patients | Hyperhidrosis, CTCAE grade 1, patients | Malaise, CTCAE grade 3, patients | Mucosal inflammation, CTCAE grade 2, patients | Myalgia, CTCAE grade 2, patients | Myalgia, CTCAE grade 3, patients | Nausea, CTCAE grade 2, patients
0: Dyspnoea, CTCAE grade 1, patients | Eosinophilic myocarditis, CTCAE grade 1, patients | Eosinophilic myocarditis, CTCAE grade 2, patients | Eosinophilic myocarditis, CTCAE grade 3, patients | Eosinophilic myocarditis, CTCAE grade 4, patients | Erythema, CTCAE grade 1, patients | Erythema, CTCAE grade 2, patients | Erythema, CTCAE grade 3, patients | Erythema, CTCAE grade 4, patients | Fatigue, CTCAE grade 4, patients | Gastric dilatation, CTCAE grade 1, patients | Gastric dilatation, CTCAE grade 2, patients | Gastric dilatation, CTCAE grade 4, patients | General physical health deterioration, CTCAE grade 1, patients | General physical health deterioration, CTCAE grade 2, patients | General physical health deterioration, CTCAE grade 3, patients | General physical health deterioration, CTCAE grade 4, patients | Hypercalcaemia, CTCAE grade 1, patients | Hypercalcaemia, CTCAE grade 2, patients | Hypercalcaemia, CTCAE grade 3, patients | Hypercalcaemia, CTCAE grade 4, patients | Hyperglycaemia, CTCAE grade 1, patients | Hyperglycaemia, CTCAE grade 2, patients | Hyperglycaemia, CTCAE grade 4, patients | Hyperhidrosis, CTCAE grade 2, patients | Hyperhidrosis, CTCAE grade 3, patients | Hyperhidrosis, CTCAE grade 4, patients | Leukopenia, CTCAE grade 1, patients | Leukopenia, CTCAE grade 4, patients | Malaise, CTCAE grade 2, patients | Malaise, CTCAE grade 4, patients | Mucosal inflammation, CTCAE grade 3, patients | Mucosal inflammation, CTCAE grade 4, patients | Myalgia, CTCAE grade 4, patients | Nasopharyngitis, CTCAE grade 2, patients | Nasopharyngitis, CTCAE grade 3, patients | Nasopharyngitis, CTCAE grade 4, patients | Nausea, CTCAE grade 3, patients
14%: Mucosal inflammation, patients with events, %
9%: Hyperglycaemia, patients with events, % | Nasopharyngitis, patients with events, %
4: Nausea, CTCAE grade 1, patients
45%: Fatigue, patients with events, %
2: Fatigue, CTCAE grade 2, patients | Hyperglycaemia, CTCAE grade 3, patients | Leukopenia, CTCAE grade 2, patients | Leukopenia, CTCAE grade 3, patients | Mucosal inflammation, CTCAE grade 1, patients | Nasopharyngitis, CTCAE grade 1, patients
5%: Gastric dilatation, patients with events, % | Hyperhidrosis, patients with events, % | Malaise, patients with events, %
7: Fatigue, CTCAE grade 1, patients | Myalgia, CTCAE grade 1, patients
0%: Eosinophilic myocarditis, patients with events, % | Erythema, patients with events, % | General physical health deterioration, patients with events, % | Hypercalcaemia, patients with events, %
18%: Leukopenia, patients with events, %
41%: Myalgia, patients with events, %
